The values that follow come from the METLIN SMRT retention time set (Domingo-Almenara et al. 2019).

The data set in a line: gradient 5% acetonitrile 3 min, to 50% in 2 min, to 85% in 15 min, held 3 min, 100 µL/min. To be noted: column: Zorbax Extend-C18 2.1 x 50 mm; eluents: water / acetonitrile, 0.1% formic acid. The gist of the method:
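Each retention time is based on an adduct peak selected computationally and verified by manual inspection. Measurements used HPLC–quadrupole time-of-flight mass spectrometry in positive and negative ionization mode on mixtures of ~100 pure standards. Chromatography ran on a Zorbax Extend-C18 column (2.1 × 50 mm, 1.8 μm) at 100 μL/min with water and acetonitrile, each containing 0.1% formic acid, and dead and dwell volumes of 40 μL and 900 μL.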
Turning to `Cc1cc(C)c2c(N3CCSCC3)nc(C(=O)NCc3cccs3)nc2n1`, the RP-LC retention time turned out to be 746 s.
Under `Cc1ccccc1S(=O)(=O)N1CCCC(C)(C(=O)NCc2ccccc2)C1` (centres undefined) stands 944 s.
Under `CC(Oc1ccc(=O)n(-c2ccc(F)cc2)n1)C(=O)Nc1cccc(Cl)c1` (centres undefined) stands 802 s.
The compound `CCCCC(=O)Nc1cnc(N(CC)CC(=O)C(C)(C)C)c(C(=O)O)c1` displayed an RP-LC retention time of 628 s.
Then `Cc1ccc(-c2cc3n(n2)CCCN(C(=O)Cc2ccsc2)C3)cc1`, with 857 s.
Compound `Cc1cc(C)cc(NC(=O)N2CCC(n3cnc4c(Cl)cccc4c3=O)CC2)c1` gave an RP-LC retention time of 892 s.
Under `O=C(Nc1ccc(CC(=O)N2CCC(O)CC2)cc1)C1CCC1` stands 588 s; under `CCOc1ccc(C(=O)Nc2ccc(Nc3ccc(-n4cccn4)nn3)cc2)cc1OCC`, 782 s.
`CCCNC(=O)c1cnn(-c2ccc(-c3nc(C(C)C)no3)cn2)c1C` yielded an RP-LC retention time of 907 s.
Under `Cc1nc(C2CCOCC2)n(C2CCN(S(=O)(=O)c3cccnc3)C2)n1` (centres undefined) stands 622 s; under `O=C(NCc1ccc(F)cc1F)c1cc2n(n1)CCCC2`, 812 s.
Under `Cc1cc(C(=O)N(Cc2ccco2)c2nc3ccccc3s2)on1` stands 1100 s.
For `CCCN(CCC)S(=O)(=O)c1cccc(-c2cn3ccc(C)cc3n2)c1`, the RP-LC retention time turned out to be 744 s.
Then `Cc1nn(-c2ccccc2)c2ccn(CC(=O)N3CCN(c4ccc(Cl)cc4)CC3)c(=O)c12`, with 948 s; and `CCOc1ccc(NC(=O)C2CCCN(c3nnc4ccc(Cl)cn34)C2)cc1` (centres undefined), with 683 s.
Under `CCCNC(=O)C1CCN(c2ccc(SCC(=O)Nc3ccc(C(=O)OC)cc3)nn2)CC1` stands 638 s; under `CS(=O)(=O)N1CCCc2ccc(NC(=O)c3ccc4nsnc4c3)cc21`, 786 s.
Under `COc1ccc(-c2ncc3c(n2)CCN(S(=O)(=O)c2ccc4c(c2)CCC4)C3)cc1` stands 1160 s.
`O=C(N[C@H]1C[C@@H]2C[C@H]1CN2S(=O)(=O)c1cccnc1)c1ccccc1` returned an RP-LC retention time of 697 s.
Under `CCOC(=O)c1nn(-c2ccccc2)c(=O)cc1NCc1ccccn1` stands 649 s; under `COc1cccc(CNC(=O)C2(C)CCCN(C(=O)Nc3ccccc3)C2)c1` (centres undefined), 839 s; under `CCn1c(=O)c(N2CCCC(C(=O)N3CCN(c4ccc(OC)cc4)CC3)C2)nc2ccccc21` (centres undefined), 987 s.
Then `CC(=O)c1cccc(NC(=O)Cn2cc(-c3ccccc3)c3ncn(C4CC4)c(=O)c32)c1`, with 877 s.
Under `CN(Cc1ccccc1)C(=O)c1ccc(-c2cccs2)nc1` stands 920 s.
In turn, `CCc1ccc(S(=O)(=O)c2cnc(N3CCC4(CC3)OCCO4)nc2N)cc1` returned an RP-LC retention time of 944 s.
`CCc1ccc(C2=C(C)C(N3CCCN(C(=O)NCCC(C)C)CC3)=NS2(=O)=O)cc1`: the RP-LC retention time was found to be 926 s.
Under `CN(C)CCCNC(=O)C1CCN(c2nc3ccc(-c4ccsc4)nc3s2)CC1` stands 644 s; under `Cc1nc(Nc2ccc(Br)cn2)sc1C(=O)N1CCC(C(N)=O)CC1`, 642 s.
Then `O=C(Cn1c(=O)c(=O)n(Cc2ccccc2)c2ncccc21)NCc1ccccn1`, with 643 s; and `CC(NC(=O)Cn1nc(Cc2cccnc2)c2ccccc2c1=O)c1ccc2c(c1)OCCO2` (centres undefined), with 632 s; and `CCN1CCN(CCCNC(=O)CN2CCSc3ccccc32)CC1`, with 580 s.
Under `O=C(NCCn1nc(-c2ccco2)ccc1=O)C1CN(c2nc3c(F)cccc3s2)C1` stands 680 s; under `Cc1ccc(C(=O)N2CCC(Nc3ncnc4c3CCC4)C2)s1` (centres undefined), 585 s; under `O=C(NCc1ccc(F)cc1)C1CCN(S(=O)(=O)c2ccc(-c3noc(C4CC4)n3)cc2)CC1`, 1020 s.
The compound `Cc1noc(C)c1S(=O)(=O)N1CC(c2nc(CCOCc3ccccc3)no2)C1` showed an RP-LC retention time of 979 s.
Then `Cc1ccccc1-c1nc(C2CCN(S(=O)(=O)c3ccccc3)CC2)no1`, with 1140 s.
Under `COc1ccc(NC(=O)C2c3cc(OC)c(OC)cc3C(=O)N(C)C2c2cccs2)cc1OC` (centres undefined) stands 744 s; under `C=CCn1nc(-c2nc(-c3cccc(Cl)c3)no2)ccc1=O`, 1060 s; under `COc1cccc(-c2cc(C(=O)N3CCN(c4ccccc4F)CC3)n(C)n2)c1`, 772 s.
Under `COc1cccc(C(=O)N2CCc3nc(CNC(=O)C4CCC4)n(C)c3C2)c1` stands 555 s.
`CCc1nn2c(CNC(=O)c3ccc(C)c(C)c3)c(-c3ccccc3)nc2s1` had an RP-LC retention time of 983 s.
Then `Cc1cccc(NC(=O)C2CCN(S(=O)(=O)c3cc(-c4noc(C5CC5)n4)cs3)CC2)c1C`, with 1020 s; and `O=C(c1ccc(F)c(Cl)c1)N1CCN(c2cc(-c3cccnc3)[nH]n2)CC1`, with 620 s; and `O=C(Cc1csc2nc(-c3ccccc3)cn12)NCc1ccc2c(c1)OCO2`, with 744 s.
Then `COc1ccc(S(=O)(=O)N2CCN(c3ccccn3)CC2)cc1OC`, with 588 s; and `CC(CCc1ccccc1)NC(=O)Cn1cccc1-c1nc(-c2ccc3c(c2)OCO3)no1` (centres undefined), with 1090 s; and `N#Cc1ccc(CN2CCC3(CC2)CN(C2CCC2)CC3CO)cc1` (centres undefined), with 606 s.
Under `NC(=O)C1CCN(c2oc(-c3ccco3)nc2S(=O)(=O)c2ccccc2)CC1` stands 652 s; under `CC(C)Cn1nc(CNC(=O)c2ccccn2)c2ccccc21`, 923 s.
Regarding `Cc1ccc(CN2CCN(CC(=O)NC3CCN(Cc4ccccc4)CC3)C(=O)C2=O)cc1`, the RP-LC retention time was determined as 614 s.
Then `Cc1cc(C)n(CCNC(=O)C(=O)Nc2ccc(Cl)cn2)n1`, with 692 s.
Under `COc1ccc(NS(=O)(=O)c2c(C)nn(-c3ccc(-c4ccc(C)cc4)nn3)c2C)cc1F` stands 999 s; under `Cn1c(C(=O)N2CCCC(C(=O)N3CCN(c4ccccn4)CC3)C2)cc2sccc21` (centres undefined), 614 s; under `CC1CCN(c2cc(N3CCN(C)CC3)ccc2NC(=O)c2cc(C#N)c[nH]2)CC1`, 595 s.
Under `O=C(Nc1ccccc1F)C1CCCN(S(=O)(=O)Cc2ccccc2)C1` (centres undefined) stands 950 s; under `CCc1ccc2nc(C)cc(C(=O)NC)c2c1`, 568 s; under `Cc1cc(C)c2c(N)c(C(=O)Nc3cccc4cccnc34)sc2n1`, 1080 s.
Regarding `Cc1c(Cl)cccc1S(=O)(=O)NCC(O)c1ccc(C(F)(F)F)cc1` (centres undefined), the RP-LC retention time came out at 938 s.
As for `CCN1CCn2c(nc3cc(C(=O)NCC4CCCCC4)ccc32)C1=O`, the RP-LC retention time turned out to be 702 s.
The compound `CCN1C(=O)COc2ccc(-c3noc(-c4ccc(OC)cc4)n3)cc21` yielded an RP-LC retention time of 1130 s.
Under `CCCS(=O)(=O)N1CCC(CCOC)(NC(=O)C2CC2)CC1` stands 686 s.
Under `Cc1cccc(N2CCN(C(=O)Cn3nc(C(=O)N4CCCC4)c4ccccc43)CC2)c1C` stands 1020 s.
Then `COC(=O)C1=C(CN2CCCC2)NC(=O)NC1c1ccccc1C` (centres undefined), with 588 s.
Turning to `COc1cccc(CNC(=O)c2ccc3c(c2)nc2n3CCN(C3CCCCC3)C2=O)c1`, the RP-LC retention time turned out to be 774 s.
Then `CCCNC(=O)C1CCCN(c2nc3ncn(CC(=O)NCc4cccs4)c(=O)c3s2)C1` (centres undefined), with 657 s; and `COc1cccc(-c2ccc(=O)n(Cc3nc(-c4ccccc4Cl)no3)n2)c1`, with 931 s.
Then `CCN1C(=O)c2cc(C(=O)Nc3ccccc3C)nn2CC1(C)C(=O)NC1CCCC1` (centres undefined), with 807 s.
Then `COc1ccccc1N1CCN(CCN2C(=O)N=C3C(=Nc4ccccc43)C2=O)CC1`, with 705 s.
The compound `CCOC(=O)c1ccc(NC(=O)c2cc3ccccc3c(=O)s2)cc1` returned an RP-LC retention time of 947 s.
`O=C(C1CCCCC1)N1CCCN(c2ncccc2-c2nc(C3CC3)no2)CC1` yielded an RP-LC retention time of 1010 s.
Under `O=C(c1ccccn1)N1CCC(n2c(-c3ccoc3)nc3cccnc32)C1` (centres undefined) stands 631 s; under `CCCN1CCN(c2ccc(-c3nc(-c4ccc(C)cc4)no3)cn2)CC1`, 750 s; under `COc1cccc(CNC(=O)CN2CCN(Cc3ccc(F)cc3)C2=O)c1`, 769 s.
Then `CCOc1cccc(-c2noc(Cn3cnc4c(cnn4-c4ccc(OC)cc4)c3=O)n2)c1`, with 1090 s; and `COc1cc(F)ccc1-c1ccnc2ncnn12`, with 681 s.
For `[C-]#[N+]/C(C(=O)Nc1ccc(C(F)(F)F)cc1)=C(\C)O`, the RP-LC retention time came to 846 s.
Compound `COc1nccnc1N1CCC(NC(=O)CCc2c(C)noc2C)C1` (centres undefined) came in with an RP-LC retention time of 606 s.
Turning to `CSc1cccc(NC(=O)N2CCC(n3c(C)nc4cccnc43)CC2)c1`, the RP-LC retention time amounted to 647 s.
Then `CCOC(=O)C(=O)Nc1c(C(=O)Nc2cccc(Cl)c2)oc2ccccc12`, with 1090 s.
